Source: patent publication US20160115540A1, “PRODRUGS AND DRUGS” (Biogen MA Inc., priority 2013, published 2016)
Where a name gives a salt, the structure may show the parent alone.

Test system: liver
Assay: Transcriptional profiling on Affymetrix GeneChips, single dose, naïve mice: liver
Assay type: in vivo, C57BL/6 mice
Conditions: for Number of differentially expressed genes identified: Liver: Naïve, Single Dose
Procedure: Treated mice were sacrificed at 2, 7, or 12 hours. Tissues (liver, spleen, kidney, jejunum, cortex, hippocampus, striatum and whole blood) were collected and analyzed by transcriptional profiling on mouse Affymetrix GeneChips.
Tissues (liver, spleen, kidney, jejunum, cortex, hippocampus, striatum and whole blood) were collected and analyzed by transcriptional profiling on mouse Affymetrix GeneChips.
Animals were exposed to CO2 and whole blood collected via cardiac puncture. Two 100 μl aliquots of whole blood were collected in 1.5 mL microcentrifuge tubes and snap frozen in liquid nitrogen. Peripheral (liver, spleen, kidney and jejunum) and CNS brain (cerebellum, hippocampus, striatum and cortex) tissues were harvested and snap frozen in liquid nitrogen, with special care taken to collect tissues of similar size and from the same location. All samples were stored at −80° C. until RNA extraction was conducted.
For RNA preparation, frozen tissues were placed in 2 mL RNAse-free 96-well blocks with 1.5 mL QIAzol Lysis Reagent (QIAgen) and a 3.2 mm stainless steel bead (BioSpec Products, Bartlesville, Okla.). Tissues were disrupted for four cycles of 45 seconds in a Mini-Beadbeater (Biospec Products). RNA was extracted in chloroform and the aqueous phase was mixed with an equal volume of 70% ethanol. Extracted RNA was applied to RNeasy 96 plates and purified by the spin method according to the manufacturer's protocol (RNeasy 96 Universal Tissue Protocol, QIAgen, Hilden Germany).
Automated sample amplifications and biotin labelings were carried out using the NuGEN Ovation RNA Amplification system V2 (Cat #3100), Ovation WB reagent (Cat #1300) and Encore Biotin module (Cat #4200) (NuGEN Technologies, Inc, San Carlos, Calif.) according to manufacturer's recommendations using an Arrayplex automated liquid handler (Beckman Coulter, Indianapolis, Ind.). Two micrograms of biotin labeled sscDNA probe were hybridized to Affymetrix GeneChip Affymetrix HT_MG-430_PM plate arrays with modified conditions as described in Allaire et al. Washing and staining of the hybridized arrays were completed as described in the GeneChip Expression analysis technical manual for HT plate arrays using the Genechip® Array Station (Affymetrix, Santa Clara, Calif.) with modifications as described in Allaire et al. The processed GeneChip® plate arrays were scanned using GeneTitan scanner (Affymetrix, Santa Clara, Calif.).
Affymetrix scans were subject to quality control (QC) measures. These tests included a visual inspection of the distribution of raw signal intensities and an assessment of RNA degradation, relative log expression (RLE), and normalized unsealed standard error (NUSE). All sample scans that passed these QC metrics were included in the analysis.
All CEL files were subjected to GC-content-based Robust Multi-array Average (GCRMA) normalization (version 2.20.0) (Irizarry R A, et al. Nucleic Acids Res 2003; 31:e15; Li C, et al. Genome Biol 2001; 2:[…]0032). Expression levels were log (base 2) transformed.
All calculations and analyses were carried out using R (version 2.11.1) and Bioconductor computational tools (Gentleman R. Springer Science+Business Media 2005).

[1] = liver, 100 mg/kg, 2 hr, vs matched vehicle controls
[2] = liver, 100 mg/kg, 7 hr, vs matched vehicle controls

SMILES: COC(=O)/C=C/C(=O)OC [DMF, dimethyl fumarate]
- FC Dnajc12 (DnaJ (Hsp40) homolog, subfamily C, member 12) (100DMF-vs-100MMF, 12 h, probe 1417441_PM_at, naïve single dose, tissue section before SPLEEN): −2.49
- FC Cyb561 (cytochrome b-561) (100DMF-vs-100MMF, 12 h, probe 1417507_PM_at, naïve single dose, tissue section before SPLEEN): −2.02
- FC Crybb3 (crystallin, beta B3) (100DMF-vs-100MMF, 12 h, probe 1419005_PM_at, naïve single dose, tissue section before SPLEEN): −1.69
- FC 9130221J18Rik (RIKEN cDNA 9130221J18 gene) (100DMF-vs-100MMF, 12 h, probe 1446368_PM_at, naïve single dose, tissue section before SPLEEN): −1.93
- FC Tnfrsf19 (1448147_PM_at) (LIVER, 100DMF-vs-100MMF, 7 h): 1.73
- FC Isyna1 (1415977_PM_at) (LIVER, 100DMF-vs-100MMF, 12 h): −1.76
- FC 1447411_PM_at (no gene symbol) (LIVER, 100DMF-vs-Veh, 2 h): 2.57
- FC 5430435G22Rik (1435830_PM_a_at) (LIVER, 100DMF-vs-Veh, 2 h): 1.79
- FC 9130221J17Rik (1443159_PM_at) (LIVER, 100DMF-vs-Veh, 2 h): 1.54
- FC Abcc1 (1452233_PM_at) (LIVER, 100DMF-vs-Veh, 2 h): 1.75
- FC Akr1b8 (1448894_PM_at) (LIVER, 100DMF-vs-Veh, 2 h): 2.18
- FC Clec4n (1419627_PM_s_at) (LIVER, 100DMF-vs-Veh, 2 h): 2.34
- FC Clec4d (1420804_PM_s_at) (LIVER, 100DMF-vs-Veh, 2 h): 2.30
- FC Figf (1438953_PM_at) (LIVER, 100DMF-vs-Veh, 2 h): 2.23
- FC Figf (1438954_PM_x_at) (LIVER, 100DMF-vs-Veh, 2 h): 1.90
- FC Figf (1449528_PM_at) (LIVER, 100DMF-vs-Veh, 2 h): 1.66
- FC Hmox1 1448239_PM_at (LIVER, 100DMF-vs-Veh, 2 h): 2.37
- FC Pgd (1436771_PM_x_at) (LIVER, 100DMF-vs-Veh, 2 h): 1.59
- FC Pgd (1437380_PM_x_at) (LIVER, 100DMF-vs-Veh, 2 h): 1.61
- FC Ppfibp2 (1417801_PM_a_at) (LIVER, 100DMF-vs-Veh, 2 h): 2.38
- FC Srxn1 (1419942_PM_at) (LIVER, 100DMF-vs-Veh, 2 h): 1.69
- FC Srxn1 (1426875_PM_s_at) (LIVER, 100DMF-vs-Veh, 2 h): 1.64
- FC Srxn1 (1451680_PM_at) (LIVER, 100DMF-vs-Veh, 2 h): 1.59
- FC Adora1 (1435495_PM_at) (LIVER, 100DMF-vs-Veh, 7 h): 1.50
- FC Akr1b8 (1448894_PM_at) (LIVER, 100DMF-vs-Veh, 7 h): 1.58
- FC Bmp6 (1450759_PM_at) (LIVER, 100DMF-vs-Veh, 7 h): 1.57
- FC Clec4n (1419627_PM_s_at) (LIVER, 100DMF-vs-Veh, 7 h): 2.01
- FC Nqo1 (1423627_PM_at) (LIVER, 100DMF-vs-Veh, 7 h): 1.81
- FC Gstm4 (1424835_PM_at) (LIVER, 100DMF-vs-Veh, 12 h): 1.54
- Number of genes, DMF Only / MMF Only (Liver): 2
- Number of differentially expressed genes identified: Liver (100 mpk DMF-vs-100 mpk MMF, 2 h after last dosing): 0
- Number of differentially expressed genes identified: Liver (100 mpk DMF-vs-100 mpk MMF, 7 h after last dosing): 1
- Number of differentially expressed genes identified: Liver (100 mpk DMF-vs-100 mpk MMF, 12 h after last dosing): 5
- Number of differentially expressed genes identified: Liver (100 mpk, vs Vehicle, 2 h after last dosing): 18
- Number of differentially expressed genes identified: Liver (100 mpk, vs Vehicle, 7 h after last dosing): 5
- Number of differentially expressed genes identified: Liver (100 mpk, vs Vehicle, 12 h after last dosing): 1
- Murine Liver DEGs: Abcc1 (1452233_PM_at) [1]: 1.75
- Murine Liver DEGs: Akr1b8 (1448894_PM_at) [1]: 2.18
- Murine Liver DEGs: Clec4n (1419627_PM_s_at) [1]: 2.34
- Murine Liver DEGs: Clec4d (1420804_PM_s_at) [1]: 2.30
- Murine Liver DEGs: Figf (1438953_PM_at) [1]: 2.23
- Murine Liver DEGs: Hmox1 (1448239_PM_at) [1]: 2.37
- Murine Liver DEGs: Pgd (1436771_PM_x_at) [1]: 1.59
- Murine Liver DEGs: Ppfibp2 (1417801_PM_a_at) [1]: 2.38
- Murine Liver DEGs: Srxn1 (1419942_PM_at) [1]: 1.69
- Murine Liver DEGs: Adora1 (1435495_PM_at) [2]: 1.50
- Murine Liver DEGs: Akr1b8 (1448894_PM_at) [2]: 1.58
- Murine Liver DEGs: Bmp6 (1450759_PM_at) [2]: 1.57
- Murine Liver DEGs: Clec4n (1419627_PM_s_at) [2]: 2.01
- Murine Liver DEGs: Nqo1 (1423627_PM_at) [2]: 1.81
- Murine Liver DEGs: Gstm4 (1424835_PM_at) (liver, 100 mg/kg, 12 hr, vs matched vehicle controls): 1.12
- Abcc1 (probe set 1452233_PM_at) differential expression (liver, 2 hr): 1.75
- Akr1b8 (probe set 1448894_PM_at) differential expression (liver, 2 hr): 2.18
- Clec4n (probe set 1419627_PM_s_at) differential expression (liver, 2 hr): 2.34
- Clec4d (probe set 1420804_PM_s_at) differential expression (liver, 2 hr): 2.30
- Figf (probe set 1438953_PM_at) differential expression (liver, 2 hr): 2.23
- Hmox1 (probe set 1448239_PM_at) differential expression (liver, 2 hr): 2.37
- Pgd (probe set 1436771_PM_x_at) differential expression (liver, 2 hr): 1.59
- Ppfibp2 (probe set 1417801_PM_a_at) differential expression (liver, 2 hr): 2.38
- Srxn1 (probe set 1419942_PM_at) differential expression (liver, 2 hr): 1.69
- Adora1 (probe set 1435495_PM_at) differential expression (liver, 7 hr): 1.50
- Akr1b8 (probe set 1448894_PM_at) differential expression (liver, 7 hr): 1.58
- Bmp6 (probe set 1450759_PM_at) differential expression (liver, 7 hr): 1.57
- Clec4n (probe set 1419627_PM_s_at) differential expression (liver, 7 hr): 2.01
- Nqo1 (probe set 1423627_PM_at) differential expression (liver, 7 hr): 1.81
- Gstm4 (probe set 1424835_PM_at) differential expression (liver, 12 hr): 1.12
